Source: patent US11505558B1, “Antiviral heterocyclic compounds” (Enanta Pharmaceuticals, Inc., priority 2019, dated 2022)

Assays:
[1] = test system: genotype A, "Long" strain RSV; test: RSV-A assay (CPE, ATPlite readout in Hep-2 cells); type: cell-based; settings: human respiratory syncytial virus, HEp-2, Hep-2 cells, genotype A "Long" strain RSV, MOI 0.1; read-out: Human RSV-A (“Long” strain) EC50
Outline: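 Protection from RSV-induced cytopathic effect, measured as ATPlite luminescence after 5 days, gave EC50 values. Assay used genotype A Long strain at MOI 0.1 on Hep-2 cells seeded at 8,000/well in DMEM growth media with 10% FBS; compounds tested as 2-fold dilutions in duplicate.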

[2] = test system: recombinant HMPV CAN97-83 (MPV-GFP1); test: HMPV antiviral assay (MPV-GFP1 eGFP fluorescence in Vero E6 cells); type: cell-based; settings: human metapneumovirus, Vero C1008, 120 h, read-out: HMPV EC50
Outline: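 Vero E6 cells in serum-free OptiMEM with 0.5 μg/mL TPCK-trypsin infected with eGFP-expressing HMPV CAN97-83 (MPV-GFP1) at MOI 0.05. 8-point […] ½-step dilutions from 8 or 2 μM, 0.5% DMSO, 5 days at 32 °C. eGFP fluorescence normalized to infected untreated wells; EC50 from four-parameter logistic fit.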

Row | Compound | EC50 [1] | EC50 [2]
1 | C[C@]1(C(N)=O)COc2c1cc([C@@](O)(CNC(=O)c1ccc(OC3CC3)c(OC3CC3)c1)C(F)(F)F)nc2-c1ccc(F)c(C(F)(F)F)c1 [Example 96] | < 200 nM | < 500 nM
2 | C[C@]1(CNCC2CC2)COc2c1cc([C@@](O)(CNC(=O)c1ccnc(C(F)(F)F)n1)C(F)(F)F)nc2-c1ccc(F)cc1 [Example 35] | > 200 nM | > 500 nM
3 | Cc1cnc2c(NC(=O)NCC(C)(C)F)cc(C(=O)NC[C@](O)(c3cc4c(c(-c5ccc(F)cc5)n3)OC[C@]4(C)C(N)=O)C(F)(F)F)cc2c1 [Example 622] | < 200 nM | < 500 nM
4 | C[C@]1(C(N)=O)COc2c1cc([C@@](O)(CNC(=O)c1ccc(OC3CC3)c(-c3ncccn3)c1)C(F)(F)F)nc2-c1ccc(F)cc1 [Example 127] | < 200 nM | > 500 nM
5 | Cc1nc(C(=O)Nc2cc(C(=O)NC[C@](O)(c3cc4c(c(-c5ccc(F)cc5)n3)OC[C@]4(C)C(N)=O)C(F)(F)F)cc3cccnc23)co1 [Example 397] | < 200 nM | > 500 nM
6 | C[C@]1(C(N)=O)COc2c1cc([C@@](O)(CNC(=O)c1cc(-c3cccnc3)c3ncccc3c1)C(F)(F)F)nc2-c1ccc(F)cc1 [Example 350] | < 200 nM | > 500 nM
7 | C[C@]1(C(N)=O)COc2c1cc([C@@](O)(CNC(=O)c1ccc3ncc(F)cc3c1)C(F)(F)F)nc2-c1ccc(F)cc1 [Example 527] | < 200 nM | > 500 nM
8 | Cc1cnc2c(NC(=O)c3ncco3)cc(C(=O)NC[C@](O)(c3cc4c(c(-c5ccc(F)cc5)n3)OC[C@]4(C)C(N)=O)C(F)(F)F)cc2c1 [Example 561] | < 200 nM | < 500 nM
9 | C[C@]1(C(N)=O)COc2c1cc([C@@](O)(CNC(=O)c1cc(NC(=O)c3ncco3)c3ncccc3c1)C(F)(F)F)nc2-c1ccc(F)cc1 [Example 398] | < 200 nM | < 500 nM
10 | C[C@]1(C(N)=O)COc2c1cc([C@@](O)(CNC(=O)c1cc(OC(F)(F)F)c3nc(N)sc3c1)C(F)(F)F)nc2-c1ccc(F)cc1 [Example 541] | < 200 nM | > 500 nM
11 | Cc1cnc2c(Nc3cncnc3)cc(C(=O)NC[C@](O)(c3cc4c(c(-c5ccc(F)cc5)n3)OC[C@]4(C)C(N)=O)C(F)(F)F)cc2c1 [Example 548] | < 200 nM | > 500 nM
12 | C[C@]1(C(=O)NCc2ccco2)COc2c1cc([C@@](O)(CNC(=O)c1cc(OC3CC3)c3ncccc3c1)C(F)(F)F)nc2-c1ccc(F)cc1 [Example 475] | < 200 nM | < 500 nM
13 | C[C@]1(C(N)=O)COc2c1cc([C@@](O)(CNC(=O)c1cc(Nc3cncnc3)c3ncccc3c1)C(F)(F)F)nc2-c1ccc(F)cc1 [Example 342] | < 200 nM | > 500 nM
14 | COc1nc2c(OC(C)C)cc(C(=O)NC[C@](O)(c3cc4c(c(-c5ccc(F)cc5)n3)OC[C@]4(C)C(N)=O)C(F)(F)F)cc2s1 [Example 444] | < 200 nM | > 500 nM
15 | COc1cc(C(=O)NC[C@](O)(c2cc3c(c(-c4ccc(F)cc4)n2)OCC3(F)C(N)=O)C(F)(F)F)cc2cn(C(F)F)nc12 (stereo partly drawn) [Example 670] | < 200 nM | < 500 nM
16 | COc1cc(C(=O)NC[C@](O)(c2cc3c(c(-c4ccc(F)cc4)n2)OCC3(F)C(N)=O)C(F)(F)F)cc2cn(C3CC3)nc12 (stereo partly drawn) [Example 676] | < 200 nM | < 500 nM
17 | Cc1cnc2c(NC(=O)NCC(C)(C)O)cc(C(=O)NC[C@](O)(c3cc4c(c(-c5ccc(F)cc5)n3)OC[C@]4(C)C(N)=O)C(F)(F)F)cc2c1 [Example 551] | < 200 nM | > 500 nM
18 | C[C@]1(C(N)=O)COc2c1cc([C@@](O)(CNC(=O)c1ccc(OC3CC3)c(OC3CC3)c1)C(F)(F)F)nc2-c1ccc(F)c(Cl)c1 [Example 90] | < 200 nM | < 500 nM

Row | Compound | EC50 [1] | EC50 [2]
19 | COc1cc(C(=O)NC[C@](O)(c2cc3c(c(-c4ccc(F)cc4)n2)OC[C@]3(C)C(N)=O)C(F)(F)F)cc2cc(C)cnc12 [Example 255] | < 200 nM | < 500 nM
20 | COc1cc(C(=O)NC[C@](O)(c2cc3c(c(-c4ccc(F)cc4)n2)OC[C@]3(C)C(N)=O)C(F)(F)F)cc2cc(Cl)cnc12 [Example 520] | < 200 nM | < 500 nM
21 | COc1cc(C(=O)NC[C@](O)(c2cc3c(c(-c4ccc(F)cc4)n2)OC[C@]3(C)C(N)=O)C(F)(F)F)cc2cc(C3CC3)cnc12 [Example 519] | < 200 nM | < 500 nM
22 | C[C@]1(C(N)=O)COc2c1cc([C@@](O)(CNC(=O)c1cc(OC(F)F)c3nc(N)sc3c1)C1CC1)nc2-c1ccc(F)cc1 [Example 539] | < 200 nM | < 500 nM
23 | C[C@]1(C(=O)NC[C@H](O)CO)COc2c1cc([C@@](O)(CNC(=O)c1cc(OC3CC3)c3ncccc3c1)C(F)(F)F)nc2-c1ccc(F)cc1 [Example 493] | < 200 nM | > 500 nM
24 | COc1cc(C(=O)NC[C@](O)(c2cc3c(c(-c4ccc(F)cc4)n2)OC[C@]3(C)C(N)=O)C(F)(F)F)cc2cc(F)cnc12 [Example 518] | < 200 nM | > 500 nM
25 | C[C@]1(C(N)=O)COc2c1cc([C@@](O)(CNC(=O)c1cc(OC3CC3)c3ncc(Cl)cc3c1)C1CC1)nc2-c1ccc(F)cc1 [Example 530] | < 200 nM | < 500 nM
26 | COc1cc(C(=O)NC[C@](O)(c2cc3c(c(-c4ccc(F)cc4)n2)OC[C@]3(C)C(N)=O)C(F)(F)F)ccc1-c1ocnc1C [Example 183] | < 200 nM | > 500 nM
27 | Cc1cnc2c(NC(=O)c3ccon3)cc(C(=O)NC[C@](O)(c3cc4c(c(-c5ccc(F)cc5)n3)OC[C@]4(C)C(N)=O)C(F)(F)F)cc2c1 [Example 621] | < 200 nM | > 500 nM
28 | Cc1cc2cc(C(=O)NC[C@](O)(c3cc4c(c(-c5ccc(F)cc5)n3)OC[C@]4(C)C(N)=O)C(F)(F)F)ccc2nn1 [Example 616] | < 200 nM | < 500 nM
29 | C[C@]1(C(N)=O)COc2c1cc([C@@](O)(CNC(=O)c1cc(Nc3ncncn3)c3ncccc3c1)C(F)(F)F)nc2-c1ccc(F)cc1 [Example 340] | < 200 nM | > 500 nM
30 | Cc1ccc2cc(C(=O)NC[C@](O)(c3cc4c(c(-c5ccc(F)cc5)n3)OC[C@]4(C)C(N)=O)C(F)(F)F)cc(NC(=O)C3CC3)c2n1 [Example 626] | < 200 nM | > 500 nM
31 | COc1cc(C(=O)NC[C@](O)(c2cc3c(c(-c4ccc(F)cc4)n2)OC[C@]3(C)C(N)=O)C(F)(F)F)cc2c1OCCC2 [Example 508] | > 200 nM | < 500 nM
32 | COc1cc(C(=O)NC[C@](O)(c2cc3c(c(-c4ccc(F)c(Cl)c4)n2)OC[C@]3(C)C(N)=O)C(F)(F)F)ccc1OC1CC1 [Example 88] | < 200 nM | < 500 nM
33 | COc1nccc(C(=O)NC[C@](O)(c2cc3c(c(-c4ccc(F)cc4)n2)OC[C@]3(C)CNCC2CC2)C(F)(F)F)n1 [Example 34] | > 200 nM | > 500 nM
34 | Cc1nc2ccc(C(=O)NC[C@](O)(c3cc4c(c(-c5ccc(F)cc5)n3)OC[C@]4(C)C(N)=O)C(F)(F)F)cc2s1 [Example 430] | < 200 nM | < 500 nM
35 | Cc1cnc2c(Nc3nccnn3)cc(C(=O)NC[C@](O)(c3cc4c(c(-c5ccc(F)cc5)n3)OC[C@]4(C)C(N)=O)C(F)(F)F)cc2c1 [Example 613] | < 200 nM | < 500 nM
36 | COc1nc2c(OC)cc(C(=O)NC[C@](O)(c3cc4c(c(-c5ccc(F)cc5)n3)OC[C@]4(C)C(N)=O)C(F)(F)F)cc2s1 [Example 445] | < 200 nM | < 500 nM
